{"source": "patent US20070128217A1", "about": "(priority 2003, published 2007)", "key": {"[1]": {"tested_on": "control sera (pooled serum of ten healthy LUMC hospital workers; commercial negative donor pooled serum from the Dutch bloodbank)", "assay_type": "binding, human", "design": "Binding of Control serum LUMC to linear peptides / Binding of Control serum Blood-bank to linear peptides / Binding of Control serum LUMC to looped peptides / Binding of Control Serum Blood-Bank to Looped peptides / Binding of Control serum LUMC to linear peptides of the protein M of SARS-CoV Urbani / Binding of Control serum Blood-bank to linear peptides of the protein M of SARS-CoV Urbani / Binding of Control serum LUMC to looped peptides of the protein M of SARS-CoV Urbani / Binding of Control Serum Blood-Bank to Looped peptides of the protein M of SARS-CoV Urbani: unit not given here"}, "[2]": {"tested_on": "antibodies in sera from SARS patients (sera 1a, 1b, 2, 6, 37, 62, London, SARS-yellow, SARS-green)", "assay_type": "binding, human", "design": "Binding of serum 6 to linear peptides of protein X1 of SARS-CoV Urbani / Binding of serum 37 to linear peptides of protein X1 of SARS-CoV Urbani / Binding of serum 6 to looped/cyclic peptide (PEPSCAN-ELISA) / Binding of serum 37 to looped/cyclic peptide (PEPSCAN-ELISA) / Binding of serum 37 to looped/cyclic peptides of protein X1 of SARS-CoV Urbani / Binding of serum 6 to linear peptides of protein X2 / Binding of serum 37 to linear peptides of protein X2 / Binding of serum 37 to looped/cyclic peptides of protein X2 of SARS-CoV Urbani / Binding of serum 6 to linear peptides of protein M of SARS-CoV Urbani / Binding of serum 37 to linear peptides of protein M of SARS-CoV Urbani / Binding of serum 6 to looped/cyclic peptides of protein M of SARS-CoV Urbani / Binding of serum 37 to looped/cyclic peptides of protein M of SARS-CoV Urbani / Binding of serum 6 to linear peptides of protein X3 of SARS-CoV Urbani / Binding of serum 37 to linear peptides of protein X3 of SARS-CoV Urbani / Binding of serum 37 to looped/cyclic peptides of protein X3 of SARS-CoV Urbani / Binding of serum 6 to linear peptides of protein X4 of SARS-CoV Urbani / Binding of serum 37 to linear peptides of protein X4 of SARS-CoV Urbani / Binding of serum 37 to looped/cyclic peptides of protein X4 of SARS-CoV Urbani / Binding of serum 6 to linear peptides of protein X5 of SARS-CoV Urbani / Binding of serum 37 to linear peptides of protein X5 of SARS-CoV Urbani / Binding of serum 37 to looped/cyclic peptides of protein X5 of SARS-CoV Urbani / Binding of serum 6 to linear peptides of protein N of SARS-CoV Urbani / Binding of serum 37 to linear peptides of protein N of SARS-CoV Urbani / Binding of serum 6 to linear peptide (PEPSCAN-ELISA) / Binding of serum 1a to looped/cyclic peptides of protein N of SARS-CoV Urbani / Binding of serum 1b to looped/cyclic peptides of protein N of SARS-CoV Urbani / Binding of serum 2 to looped/cyclic peptides of protein N of SARS-CoV Urbani / Binding of serum 6 to looped/cyclic peptides of protein N of SARS-CoV Urbani / Binding of serum 37 to looped/cyclic peptides of protein N of SARS-CoV Urbani / Binding of serum 62 to looped/cyclic peptides of protein N of SARS-CoV Urbani / Binding of serum London to looped/cyclic peptides of protein N of SARS-CoV Urbani / Binding of serum SARS-green to looped/cyclic peptides of protein N of SARS-CoV Urbani: unit not given here"}, "[3]": {"tested_on": "rabbit serum obtained by immunizing a rabbit with the SARS-CoV strain Frankfurt 1", "assay_type": "binding", "design": "Binding of a rabbit serum to linear peptides / Binding of a rabbit serum to looped peptides / Rabbit serum linear peptides / Rabbit serum looped peptides / Binding of a rabbit serum to linear peptides of protein N of SARS-CoV Urbani (Rabbit serum linear peptides) / Binding of a rabbit serum to looped/cyclic peptides of protein N of SARS-CoV Urbani (Rabbit serum looped peptides): unit not given here"}}, "data": [{"sequence": "FHRWHTMVQTCTPNV", "values": [{"measurement": "Binding of Control Serum Blood-Bank to Looped peptides", "setting": "[1]", "result": 0.4}, {"measurement": "Binding of Control serum Blood-bank to linear peptides", "setting": "[1]", "result": 0.7}, {"measurement": "Binding of Control serum LUMC to linear peptides", "setting": "[1]", "result": 0.5}, {"measurement": "Binding of Control serum LUMC to looped peptides", "setting": "[1]", "result": 0.5}, {"measurement": "Binding of serum 1a to linear peptides of protein X5 of SARS-CoV Urbani", "setting": "[2]", "result": 0.8}, {"measurement": "Binding of serum 1a to looped/cyclic peptides of protein X5 of SARS-CoV Urbani", "setting": "[2]", "result": 0.7}, {"measurement": "Binding of serum 1b to linear peptides of protein X5 of SARS-CoV Urbani", "setting": "[2]", "result": 0.7}, {"measurement": "Binding of serum 1b to looped/cyclic peptides of protein X5 of SARS-CoV Urbani", "setting": "[2]", "result": 0.6}, {"measurement": "Binding of serum 2 to linear peptides of protein X5 of SARS-CoV Urbani", "setting": "[2]", "result": 0.9}, {"measurement": "Binding of serum 2 to looped/cyclic peptides of protein X5 of SARS-CoV Urbani", "setting": "[2]", "result": 0.6}, {"measurement": "Binding of serum 6 to linear peptides of protein X5 of SARS-CoV Urbani", "setting": "[2]", "result": 0.5}, {"measurement": "Binding of serum 6 to looped/cyclic peptides of protein X5 of SARS-CoV Urbani", "setting": "[2]", "result": 0.3}, {"measurement": "Binding of serum 37 to linear peptides of protein X5 of SARS-CoV Urbani", "setting": "[2]", "result": 0.7}, {"measurement": "Binding of serum 37 to looped/cyclic peptides of protein X5 of SARS-CoV Urbani", "setting": "[2]", "result": 0.5}, {"measurement": "Binding of serum 62 to linear peptides of protein X5 of SARS-CoV Urbani", "setting": "[2]", "result": 0.7}, {"measurement": "Binding of serum 62 to looped/cyclic peptides of protein X5 of SARS-CoV Urbani", "setting": "[2]", "result": 0.4}, {"measurement": "Binding of serum London to linear peptides of protein X5 of SARS-CoV Urbani", "setting": "[2]", "result": 0.7}, {"measurement": "Binding of serum London to looped/cyclic peptides of protein X5 of SARS-CoV Urbani", "setting": "[2]", "result": 0.2}, {"measurement": "Binding of serum SARS-green to linear peptides of protein X5 of SARS-CoV Urbani", "setting": "[2]", "result": 0.5}, {"measurement": "Binding of serum SARS-green to looped/cyclic peptides of protein X5 of SARS-CoV Urbani", "setting": "[2]", "result": 0.5}, {"measurement": "Binding of serum SARS-yellow to linear peptides of protein X5 of SARS-CoV Urbani", "setting": "[2]", "result": 0.4}, {"measurement": "Binding of serum SARS-yellow to looped/cyclic peptides of protein X5 of SARS-CoV Urbani", "setting": "[2]", "result": 0.4}, {"measurement": "Rabbit serum linear peptides", "setting": "[3]", "result": 0.8}, {"measurement": "Rabbit serum looped peptides", "setting": "[3]", "result": 0.4}]}, {"sequence": "FIRQEEVQQELYSPL", "values": [{"measurement": "Binding of Control Serum Blood-Bank to Looped peptides", "setting": "[1]", "result": 0.9}, {"measurement": "Binding of Control serum Blood-bank to linear peptides", "setting": "[1]", "result": 0.7}, {"measurement": "Binding of Control serum LUMC to linear peptides", "setting": "[1]", "result": 0.7}, {"measurement": "Binding of Control serum LUMC to looped peptides", "setting": "[1]", "result": 0.9}, {"measurement": "Binding of serum 1a to linear peptides of protein X4 of SARS-CoV Urbani", "setting": "[2]", "result": 0.8}, {"measurement": "Binding of serum 1b to linear peptides of protein X4 of SARS-CoV Urbani", "setting": "[2]", "result": 0.6}, {"measurement": "Binding of serum 2 to linear peptides of protein X4 of SARS-CoV Urbani", "setting": "[2]", "result": 0.5}, {"measurement": "Binding of serum 6 to linear peptides of protein X4 of SARS-CoV Urbani", "setting": "[2]", "result": 0.5}, {"measurement": "Binding of serum 37 to linear peptides of protein X4 of SARS-CoV Urbani", "setting": "[2]", "result": 0.8}, {"measurement": "Binding of serum 62 to linear peptides of protein X4 of SARS-CoV Urbani", "setting": "[2]", "result": 0.7}, {"measurement": "Binding of serum London to linear peptides of protein X4 of SARS-CoV Urbani", "setting": "[2]", "result": 0.7}, {"measurement": "Binding of serum SARS-green to linear peptides of protein X4 of SARS-CoV Urbani", "setting": "[2]", "result": 0.5}, {"measurement": "Binding of serum SARS-yellow to linear peptides of protein X4 of SARS-CoV Urbani", "setting": "[2]", "result": 0.7}, {"measurement": "Recognition of the peptide by sera of SARS-CoV infected individuals, and form (linear, looped/cyclic) in which it is recognized", "setting": "[2]", "result": "recognized in looped/cyclic form"}, {"measurement": "Rabbit serum linear peptides", "setting": "[3]", "result": 0.5}, {"measurement": "Rabbit serum looped peptides", "setting": "[3]", "result": 0.5}]}, {"sequence": "FLAVFQSATKIIALN", "values": [{"measurement": "Binding of Control Serum Blood-Bank to Looped peptides", "setting": "[1]", "result": 0.6}, {"measurement": "Binding of Control serum Blood-bank to linear peptides", "setting": "[1]", "result": 0.6}, {"measurement": "Binding of Control serum LUMC to linear peptides", "setting": "[1]", "result": 0.6}, {"measurement": "Binding of Control serum LUMC to looped peptides", "setting": "[1]", "result": 0.7}, {"measurement": "Binding of serum 1a to linear peptides of protein X1 of SARS-CoV Urbani", "setting": "[2]", "result": 0.6}, {"measurement": "Binding of serum 1a to looped/cyclic peptide (PEPSCAN-ELISA)", "setting": "[2]", "result": 0.6}, {"measurement": "Binding of serum 1b to linear peptides of protein X1 of SARS-CoV Urbani", "setting": "[2]", "result": 0.4}, {"measurement": "Binding of serum 1b to looped/cyclic peptide (PEPSCAN-ELISA)", "setting": "[2]", "result": 0.4}, {"measurement": "Binding of serum 2 to linear peptides of protein X1 of SARS-CoV Urbani", "setting": "[2]", "result": 0.5}, {"measurement": "Binding of serum 2 to looped/cyclic peptide (PEPSCAN-ELISA)", "setting": "[2]", "result": 0.5}, {"measurement": "Binding of serum 6 to linear peptides of protein X1 of SARS-CoV Urbani", "setting": "[2]", "result": 0.4}, {"measurement": "Binding of serum 6 to looped/cyclic peptide (PEPSCAN-ELISA)", "setting": "[2]", "result": 1.0}, {"measurement": "Binding of serum 37 to linear peptides of protein X1 of SARS-CoV Urbani", "setting": "[2]", "result": 0.6}, {"measurement": "Binding of serum 37 to looped/cyclic peptide (PEPSCAN-ELISA)", "setting": "[2]", "result": 0.5}, {"measurement": "Binding of serum 62 to linear peptides of protein X1 of SARS-CoV Urbani", "setting": "[2]", "result": 0.6}, {"measurement": "Binding of serum 62 to looped/cyclic peptide (PEPSCAN-ELISA)", "setting": "[2]", "result": 0.6}, {"measurement": "Binding of serum London to linear peptides of protein X1 of SARS-CoV Urbani", "setting": "[2]", "result": 0.2}, {"measurement": "Binding of serum London to looped/cyclic peptide (PEPSCAN-ELISA)", "setting": "[2]", "result": 1.4}, {"measurement": "Binding of serum SARS-green to linear peptides of protein X1 of SARS-CoV Urbani", "setting": "[2]", "result": 0.3}, {"measurement": "Binding of serum SARS-green to looped/cyclic peptide (PEPSCAN-ELISA)", "setting": "[2]", "result": 0.3}, {"measurement": "Binding of serum SARS-yellow to linear peptides of protein X1 of SARS-CoV Urbani", "setting": "[2]", "result": 0.4}, {"measurement": "Binding of serum SARS-yellow to looped/cyclic peptide (PEPSCAN-ELISA)", "setting": "[2]", "result": 0.4}, {"measurement": "Binding of a rabbit serum to linear peptides", "setting": "[3]", "result": 0.6}, {"measurement": "Binding of a rabbit serum to looped peptides", "setting": "[3]", "result": 0.6}]}]}
